We go through 21 compounds from patent US6281355A, “Nitrogen-containing tetracyclic compounds” (Taisho Pharmaceutical Co., Ltd., priority 1997, dated 2001).

For orientation: IC50 means the point on the concentration scale where inhibition reaches its midpoint. A low value points to greater potency in that assay.

This assay deals with T1, mitochondrial diazepam binding inhibitor receptor (MDR) (Rattus norvegicus, UniProt P16257).
T1 construct: Crude mitochondria fractions prepared from rat cerebral cortex were used as a receptor sample; from tissue; host or cells: rat cerebral cortex, crude mitochondria fraction
T1 sequence (P16257 whole entry): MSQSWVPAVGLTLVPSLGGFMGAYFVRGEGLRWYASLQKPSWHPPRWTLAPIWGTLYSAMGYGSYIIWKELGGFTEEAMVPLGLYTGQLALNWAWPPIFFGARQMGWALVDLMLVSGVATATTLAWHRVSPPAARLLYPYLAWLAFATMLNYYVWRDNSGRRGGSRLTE
The experiment in a line: MDR Receptor Binding Assay ([3H]PK11195 binding to crude mitochondria fraction of rat cerebral cortex). The following applies: inhibition of [3H]PK11195 (2 nM) binding; rat cerebral cortex crude mitochondria 1.0 mg protein/ml; 4° C., 90 minutes; non-specific: 10 μM PK11195. As for the experimental part:
Experiment [MDR Receptor Binding Assay]
Crude mitochondria fractions prepared from rat cerebral cortex were used as a receptor sample, and [^3 H]PK11195 was used as a [^3 H]-labeled ligand.
A binding assay using the [^3 H]-labeled ligand was carried out according to the following method as described in Journal of Pharmacology and Experimental Therapeutics, 262, 971(1992).
Preparation of Receptor Sample: Rat cerebral cortex was homogenized using a Teflon-coated homogenizer in a 10 mM HEPES buffer (pH 7.4) containing 0.32 M sucrose in ten volumes of the wet weight. The homogenate was centrifuged at 900× g for 10 minutes, and the resulting supernatant was centrifuged at 9,000× g for 10 minutes. The precipitate was suspended in a HEPES buffer to give a protein concentration of 1 mg/ml, and centrifuged at 12,000× g for 10 minutes. The resulting precipitate was suspended in a 50 mM HEPES buffer (pH 7.4) to give a crude mitochondria fraction.
MDR Binding Assay: Mitochondria sample (1.0 mg protein/ml), [^3 H]PK11195 (2 nM) and the test drug were reacted at 4° C. for 90 minutes.
After completion of the reaction, the reaction mixture was filtered with suction through a glass filter (GF/B) treated with 0.3% polyethyleneimine,and the radioactivity on the filter was measured by a liquid scintillation spectrometer.
The binding at the reaction in the presence of 10 μM PK11195 was defined as non-specific binding of [^3 H]PK11195, and the difference between total binding and non-specific binding was defined as specific binding.
As for `CCCCCCN(CCCCCC)C(=O)C1Sc2ccccc2-c2[nH]c3ccccc3c21` (racemic) [Compound 06, N,N-Dihexyl-6,11-dihydro-5-thia-11-aza-benzo[a]fluoren-6-carboxamide], the IC50 was 3.76 nM.
The result for `CCCCCCN(CCCCCC)C(=O)C1Sc2ccccc2-c2[nH]c3ccccc3c21` (single isomer, unassigned; (+)) [Compound 08, (+)-N,N-Dihexyl-6,11-dihydro-5-thia-11-aza-benzo[a]fluoren-6-carboxamide] reads 2.15 nM.
The result for `CCCCCCN(CCCCCC)C(=O)C1Sc2ccccc2-c2[nH]c3ccccc3c21` (single isomer, unassigned; (-)) [Compound 07, (-)-N,N-Dihexyl-6,11-dihydro-5-thia-11-aza-benzo[a]fluoren-6-carboxamide] reads 42.3 nM.
For `CCCNC(=O)C1Sc2ccccc2-c2[nH]c3ccccc3c21` (stereo not drawn) [Compound 02] the value was 55.9 nM; for `CN(C)C(=O)C1Sc2ccccc2-c2[nH]c3ccccc3c21` (stereo not drawn) [Compound 03], 38.5 nM; for `CCN(CC)C(=O)C1Sc2ccccc2-c2[nH]c3ccccc3c21` (stereo not drawn) [Compound 04], 0.443 nM.
The compound `CCCN(CCC)C(=O)C1Sc2ccccc2-c2[nH]c3ccccc3c21` (stereo not drawn) [Compound 05, N,N-dipropyl-6,11-dihydro-5-thia-11-aza-benzo[a]fluoren-6-carboxamide] came in with an IC50 of 0.368 nM. This IC50 and that of the compound before are within 1.5-fold of each other.
For `CCCCCCN(CCCCCC)C(=O)C1Sc2ccccc2-c2[nH]c3ccc(F)cc3c21` (stereo not drawn) [Compound 09] the value was 13.8 nM; for `CCCCCCN(CCCCCC)C(=O)C1Sc2ccccc2-c2[nH]c3ccc(Cl)cc3c21` (stereo not drawn) [Compound 10], 20.1 nM; for `CCCCCCN(CCCCCC)C(=O)C1Sc2ccccc2-c2[nH]c3ccc(C)cc3c21` (stereo not drawn) [Compound 11], 13.9 nM.
For `CCCCCCN(CCCCCC)C(=O)C1Sc2ccccc2-c2[nH]c3c(F)cc(F)cc3c21` (stereo not drawn) [Compound 12] the value was 22.1 nM; for `CCCCCCN(CCOCCC)C(=O)C1Sc2ccccc2-c2[nH]c3ccccc3c21` (stereo not drawn) [Compound 14], 1.35 nM; for `COCCN(CCOC)C(=O)C1Sc2ccccc2-c2[nH]c3ccccc3c21` (stereo not drawn) [Compound 15], 4.98 nM.
For `CCCCCCN(CCCCCC)C(=O)C1Sc2ccccc2-c2c1c1ccccc1n2C` (stereo not drawn) [Compound 16, N,N-Dihexyl-6,11-dihydro-11-methyl-5-thia-11-aza-benzo[a]fluoren-6-carboxamide] the value was 1.35 nM; for `CCCN(CCC)C(=O)C1c2c([nH]c3ccccc23)-c2ccccc2S1(=O)=O` (stereo not drawn) [Compound 21, N,N-dipropyl-6,11-dihydro-5-thia-11-aza-benzo[a]fluoren-6-carboxamide 5,5-dioxide], 1.12 nM; for `CCCCCCN(CCCCCC)C(=O)C1c2c([nH]c3ccccc23)-c2ccccc2S1(=O)=O` (stereo not drawn) [Compound 22], 1.23 nM.
`CCCCCCN(CCCCCC)C(=O)C1Cc2ccccc2-c2[nH]c3ccccc3c21` (stereo not drawn) [Compound 23] yielded an IC50 of 1.35 nM.
For `CCCN(CCC)C(=O)C1Cc2ccccc2-c2nc3ccccc3n21` (stereo not drawn) [Compound 25], the IC50 came out at 73.9 nM. This IC50 is about 55-fold higher than that of the compound before.
For `CCCCCCN(CCCCCC)C(=O)C1Cc2ccccc2-c2nc3ccccc3n21` (stereo not drawn) [Compound 26, N,N-dihexyl-5,6-dihydro-benzo[4,5]imidazo[2,1-a]isoquinoline-6-carboxamide] the value was 42.3 nM.
For `CCCCCCN(CCCCCC)C(=O)C1c2c([nH]c3ccccc23)-c2ccccc2N1C=O` (stereo not drawn) [Compound 27] the value was 35.1 nM; for `CCCCCCN(CCCCCC)C(=O)C1c2c([nH]c3ccccc23)-c2ccccc2N1C(C)=O` (stereo not drawn) [Compound 28], 12.6 nM.
